Test [1] concerns the target T1, H-ras FPT (Ras-CVLS farnesylation by partially purified rat brain farnesyl protein transferase (FPT)) (Rattus norvegicus, UniProt Q02293+Q04631).
T1 construct: partially purified rat brain farnesyl protein transferase (FPT); from tissue; host or cells: rat brain, partially purified
In words: FPT IC50 (inhibition of farnesyl protein transferase, in vitro enzyme assay). It counts as biochemical.

Test [2] relates to Ras processing in COS cells. In words: COS IC50, cell-based assay: COS cells activity inhibition of Ras processing. The protocol:
2. Cell-based assay. COS IC50 values refer to the COS cells activity inhibition of Ras processing, are determined by the methods disclosed in […] or WO 95/10516.

One may read the IC50 as the midpoint of a concentration-inhibition curve. A high value points to weaker potency in that assay.

In test [1], `O=C(NOCC(=O)N1CCC([C@H]2c3ncc(Br)cc3CCc3cc(Cl)cc(Br)c32)CC1)c1ccccc1` [Example 1] displayed an IC50 of 27 nM.

In turn, `O=C(CO/N=C/c1cc[n+]([O-])cc1)N1CCC([C@H]2c3ncc(Br)cc3CCc3cc(Cl)cc(Br)c32)CC1` [Example 6] showed an IC50 in test [2] of 690 nM.

`NOCC(=O)N1CCC([C@H]2c3ncc(Br)cc3CCc3cc(Cl)cc(Br)c32)CC1` [Example 15, (+)-1-[(aminooxy)acetyl]-4-(3,10-dibromo-8-chloro-6,11-dihydro-5H-benzo[5,6]cyclohepta[1,2-b]pyridin-11(R)-yl)piperidine] displayed an IC50 in test [1] of 32 nM.

These data come from patent US5945430A, “Aminooxyamide tricyclic inhibitors of farnesyl-protein transferase” (Schering Corporation, priority 1998, dated 1999).
